# Source: US8980944B2 (Gemmus Pharma Inc., priority 2006, dated 2015)
# “And” between values parts separate entries of the source, which are not always exact repeats. Equal entries are not always repeated.
# How the values were obtained:
# IL-2 = experiment: Anti-CD3/CD28-stimulated human CD8 cells, IL-2 release (multi-cytokine bead immunoassay)
# clinical = settings: human, in vivo, po
# TNFα [1] = experiment: Poly(I:C)-stimulated human monocyte-derived dendritic cells, TNFα release (ELISA); type: cell-based; settings: one micromolar; for TNFα percent inhibition from untreated control: Poly IC-stimulated monocyte-derived dendritic cells, 18 hours
# TNFα [2] = experiment: ConA-stimulated human peripheral blood lymphocytes, TNFα release (ELISA); settings: human T cells, ConA stimulation
# IL-12 = experiment: LPS-stimulated human monocyte-derived dendritic cells, IL-12 release (ELISA); settings: LPS stimulation
# GM-CSF = experiment: Anti-CD3/CD28-stimulated human CD8 cells, GM-CSF release (multi-cytokine bead immunoassay); settings: 1 μM Nileprost, Anti-CD3/CD28 stimulation, individual donors 1-4
# IFN-γ [3] = experiment: Anti-CD3/CD28-stimulated human CD8 cells, IFN-γ release (multi-cytokine bead immunoassay)
# IFN-γ [4] = experiment: ConA-stimulated human peripheral blood lymphocytes, IFN-γ release (ELISA); settings: for Percent inhibition of IFN-γ compared to uninhibited control: human T cells, ConA stimulation
# [5] = Study A: tolerance and pharmacokinetics in volunteers after single oral dose; settings: human, in vivo
structure (smiles),measurement,setting,value
CCCCC(C)[C@H](O)/C=C/[C@@H]1[C@H]2C/C(=C(\C#N)CCCC(=O)O)O[C@H]2C[C@H]1O (stereo partly drawn) [Nileprost],Percent inhibition of IL-2 compared to uninhibited control,"IL-2; 1 μM Nileprost, Anti-CD3/CD28 stimulation, individual donors 1-4",70%
same,inhibition at 1 µM,"IL-2; Homo sapiens, read-out: Percent inhibition of IL-2 compared to uninhibited control, 1 μM Nileprost, Anti-CD3/CD28 stimulation, individual donors 1-4",71%
same,Cmax,clinical; 50 ug,0.566 ng/mL and 1.4 nM
same,Cmax,clinical; 75 ug,0.869 ng/mL and 2.2 nM
same,Cmax,clinical; 112 ug,0.803 ng/mL and 2 nM
same,Cmax,clinical; 170 ug,0.954 ng/mL and 2.4 nM
same,Cmax,clinical; 255 ug,1.71 ng/mL and 4.3 nM
same,Cmax,clinical; 375 ug,1.72 ng/mL and 4.3 nM
same,TNFα percent inhibition from untreated control,TNFα [1]; Donor 1,89%
same,TNFα percent inhibition from untreated control,TNFα [1]; Donor 2,45%
same,TNFα percent inhibition from untreated control,TNFα [1]; Donor 3,74%
same,Poly(I:C)-induced TNFα,TNFα [1]; monocyte-derived dendritic cells,significant decrease
same,inhibition at 0.001 µM,"TNFα [2]; Homo sapiens, T-cell, read-out: Percent inhibition of TNF compared to uninhibited control, Nileprost 1 nM, individual donors 3-4",24%
same,inhibition at 0.0025 µM,"TNFα [2]; Homo sapiens, T-cell, read-out: Percent inhibition of TNF compared to uninhibited control, Nileprost 2.5 nM, individual donors 1-2",24%
same,inhibition at 0.003 µM,"TNFα [2]; Homo sapiens, T-cell, read-out: Percent inhibition of TNF compared to uninhibited control, Nileprost 3 nM, individual donors 3-4",28%
same,inhibition at 0.005 µM,"TNFα [2]; Homo sapiens, T-cell, read-out: Percent inhibition of TNF compared to uninhibited control, Nileprost 5 nM, individual donors 1-2",47%
same,inhibition at 0.009 µM,"TNFα [2]; Homo sapiens, T-cell, read-out: Percent inhibition of TNF compared to uninhibited control, Nileprost 9 nM, individual donors 3-4",53%
same,inhibition at 0.01 µM,"TNFα [2]; Homo sapiens, T-cell, read-out: Percent inhibition of TNF compared to uninhibited control, Nileprost 10 nM, individual donors 1-2",46%
same,inhibition at 0.02 µM,"TNFα [2]; Homo sapiens, T-cell, read-out: Percent inhibition of TNF compared to uninhibited control, Nileprost 20 nM, individual donors 1-2",50%
same,inhibition at 0.083 µM,"TNFα [2]; Homo sapiens, T-cell, read-out: Percent inhibition of TNF compared to uninhibited control, Nileprost 83 nM, individual donors 3-4",61%
same,Percent inhibition of TNF compared to uninhibited control,"TNFα [2]; Nileprost 0.04 nM, individual donors 3-4",1% and 11%
same,Percent inhibition of TNF compared to uninhibited control,"TNFα [2]; Nileprost 0.11 nM, individual donors 3-4",4% and 16%
same,Percent inhibition of TNF compared to uninhibited control,"TNFα [2]; Nileprost 0.5 nM, individual donors 1-2",7% and 1%
same,Percent inhibition of TNF compared to uninhibited control,"TNFα [2]; Nileprost 1 nM, individual donors 3-4",37%
same,Percent inhibition of TNF compared to uninhibited control,"TNFα [2]; Nileprost 1.25 nM, individual donors 1-2",14% and 5%
same,Percent inhibition of TNF compared to uninhibited control,"TNFα [2]; Nileprost 2.5 nM, individual donors 1-2",19%
same,Percent inhibition of TNF compared to uninhibited control,"TNFα [2]; Nileprost 3 nM, individual donors 3-4",48%
same,Percent inhibition of TNF compared to uninhibited control,"TNFα [2]; Nileprost 5 nM, individual donors 1-2",36%
same,Percent inhibition of TNF compared to uninhibited control,"TNFα [2]; Nileprost 9 nM, individual donors 3-4",67%
same,Percent inhibition of TNF compared to uninhibited control,"TNFα [2]; Nileprost 10 nM, individual donors 1-2",49%
same,Percent inhibition of TNF compared to uninhibited control,"TNFα [2]; Nileprost 83 nM, individual donors 3-4",76%
same,Percent inhibition of TNF compared to uninhibited control,"TNFα [2]; Nileprost 250 nM, individual donors 3-4",49% and 76%
same,inhibitory activity in human monocyte-derived dendritic cell (DC) cytokine release,IL-12,very high inhibitory activity
same,Percent inhibition of GM-CSF compared to uninhibited control,GM-CSF,65% and 61%
same,Percent inhibition of IFN-γ compared to uninhibited control,"IFN-γ [3]; 1 μM Nileprost, human CD8 cells, Anti-CD3/CD28 stimulation, individual donors 1-4",59% and 80%
same,inhibitory activity in the cytotoxic CD8+ lymphocyte cytokine release,"IFN-γ [3]; IFN-γ, GM-CSF and IL-2, anti-CD3/CD28 stimulation",very high inhibitory activity
same,Percent inhibition of IFN-γ compared to uninhibited control,"IFN-γ [4]; Nileprost 0.04 nM, individual donors 5-8",16% and 7% and 9% and 27%
same,Percent inhibition of IFN-γ compared to uninhibited control,"IFN-γ [4]; Nileprost 0.11 nM, individual donors 5-8",22% and 16% and 34%
same,Percent inhibition of IFN-γ compared to uninhibited control,"IFN-γ [4]; Nileprost 1 nM, individual donors 5-8",43% and 32% and 24% and 51%
same,Percent inhibition of IFN-γ compared to uninhibited control,"IFN-γ [4]; Nileprost 1.25 nM, individual donors 1-4",11%
same,Percent inhibition of IFN-γ compared to uninhibited control,"IFN-γ [4]; Nileprost 2.5 nM, individual donors 1-4",43%
same,Percent inhibition of IFN-γ compared to uninhibited control,"IFN-γ [4]; Nileprost 3 nM, individual donors 5-8",56% and 46% and 22% and 71%
same,Percent inhibition of IFN-γ compared to uninhibited control,"IFN-γ [4]; Nileprost 5 nM, individual donors 1-4",48% and 56%
same,Percent inhibition of IFN-γ compared to uninhibited control,"IFN-γ [4]; Nileprost 9 nM, individual donors 5-8",59% and 60% and 48% and 73%
same,Percent inhibition of IFN-γ compared to uninhibited control,"IFN-γ [4]; Nileprost 10 nM, individual donors 1-4",43%
same,Percent inhibition of IFN-γ compared to uninhibited control,"IFN-γ [4]; Nileprost 20 nM, individual donors 1-4",56% and 67%
same,Percent inhibition of IFN-γ compared to uninhibited control,"IFN-γ [4]; Nileprost 83 nM, individual donors 5-8",57% and 60% and 65% and 85%
same,Percent inhibition of IFN-γ compared to uninhibited control,"IFN-γ [4]; Nileprost 250 nM, individual donors 5-8",59% and 76% and 57% and 83%
same,inhibitory activity in the T lymphocyte Th-1 cytokine release,"IFN-γ [4]; dose responsively, ConA-stimulated human lymphocytes",very high inhibitory activity
same,Cmax,[5]; 32 ug,0.84 ng/mL and 2.1 nM
same,Cmax,[5]; 65 ug,0.929 ng/mL and 2.3 nM
